Assay results: patent publication US10683307B2, “Compounds for use in antibacterial applications” (GLAXOSMITHKLINE INTELLECTUAL PROPERTY DEVELOPMENT LIMITED, priority 2015, dated 2020)
Counter-ions that a name gives are not always drawn. Like-named read-outs stand apart in the source and are kept apart here.

Legend:
Assay type in all cases: cell-based
[1] = tested on: Mycobacterium tuberculosis H37Rv; assay: Mycobacterium Tuberculosis H37Rv Inhibition Assay; settings: H37Rv strain, Middlebrook 7H9+ADC, resazurin fluorescence; for MIC: H37RV
Enterococcus faecalis = tested on: Enterococcus faecalis
Moraxella catarrhalis = settings: unit inferred
E. faecium = settings: G1 = E. faecium
Burkholderia cepacia = tested on: Burkholderia cepacia; set-up: unit not given beside the values; settings: unit not given
Bacteroides caccae = tested on: Bacteroides caccae
Bacteroides fragilis = tested on: Bacteroides fragilis
Streptococcus agalactiae = tested on: Streptococcus agalactiae
Bacillus anthracis = assay: microbe, parasite or virus in culture
Bacteroides ovatus = tested on: Bacteroides ovatus
Francisella tularensis = assay: microbe, parasite or virus in culture
Serratia marcescens = settings: Table 1 column N = Serratia marcescens; unit inferred
[2] = tested on: Burkholderia pseudomallei; settings: Table 3 column E4 = Burkholderia pseudomallei
Burkholderia mallei = settings: Table 3 column D4 = Burkholderia mallei
[3] = tested on: Bacteroides thetaiotamicron
Yersinia pestis = assay: microbe, parasite or virus in culture
citrobacter spp = settings: Table 1 column L = citrobacter spp; unit inferred
Providencia rettgeri = settings: Table 1 column O = Providencia rettgeri; unit inferred
Streptococcus pneumonia = settings: Streptococcus pneumoniae
Staphylococcus aureus = tested on: Staphylococcus aureus
Streptococcus pyogenes = tested on: Streptococcus pyogenes
Legionella pneumophila = settings: Table 1 column G = Legionella pneumophila; unit inferred

**Q.** With `COc1ccc2ccc(=O)n(CCN3C[C@H](CNCc4cnc5c(n4)NC(=O)CS5)[C@H](O)C3)c2n1` [Compound Y, HCl salt, 1-{2-[(3S,4S)-3-hydroxy-4-{[({3-oxo-2H,3H,4H-pyrazino[2,3-b][1,4]thiazin-6-yl}methyl)amino]methyl}pyrrolidin-1-yl]ethyl}-7-methoxy-1,2-dihydro-1,8-naphthyridin-2-one] as the molecule, how does the MIC [1] read?
**A.** ≤ 0.02 µg/mL

**Q.** With `COc1cnc2ccc(F)c(CN[C@H]3CC[C@H](NCc4cnc5c(n4)NC(=O)CO5)CC3)c2n1` [Formula (V) free base, 6-((((1R,4R)-4-(((6-fluoro-3-methoxyquinoxalin-5-yl)methyl)amino)cyclohexyl)amino)methyl)-2H-pyrazino[2,3-b][1,4]oxazin-3(4H)-one] as the molecule, how does the MIC90 (Enterococcus faecalis; read-out: MIC90) read?
**A.** ≤ 0.5 µg/mL

**Q.** What about the MIC90 (Moraxella catarrhalis) of the same molecule?
**A.** < 0.016 µg/mL

**Q.** What about the MIC90 (E. faecium; Enterococcus faecium, read-out: MIC90) of the same molecule?
**A.** ≤ 0.5 µg/mL

**Q.** And the MIC [1]?
**A.** ≤ 0.02 µg/mL

**Q.** `Cn1cc(C(=O)O)c(=O)c2c(CC[C@H]3CC[C@H](NCc4cnc5c(n4)NC(=O)CS5)CC3)c(F)cc(F)c21` [Compound Z, TFA salt, 6,8-difluoro-1-methyl-4-oxo-5-(2-((1r,4s)-4-(((3-oxo-3,4-dihydro-2H-pyrazino [2,3-b][1,4]thiazin-6-yl)methyl)amino)cyclohexyl)ethyl)-1,4-dihydroquinoline-3-carboxylic acid] was tested. Which MIC [1] did it give?
**A.** ≤ 0.1 µg/mL

**Q.** `COc1ccc2ncc(=O)n(CCN3CC[C@@H](CNCc4ncc5c(n4)NC(=O)CO5)C3)c2n1` [Formula (VII) free base, 2-({[((3S)-1-{2-[6-(methyloxy)-3-oxopyrido[2,3-b]pyrazin-4(3H)-yl]ethyl}-3-pyrrolidinyl)methyl]amino}methyl)-1H-pyrimido[5,4-b][1,4]oxazin-7(6H)-one] was tested. Which MIC90 (Enterococcus faecalis) did it give?
**A.** ≤0.25 µg/mL

**Q.** And the MIC90 (Moraxella catarrhalis)?
**A.** < 0.016 µg/mL

**Q.** And the MIC90 (E. faecium)?
**A.** ≤0.125 µg/mL

**Q.** What about the “H37Rv MIC” value [1] of the same molecule?
**A.** ≤0.16 µg/mL

**Q.** What about the MIC90 (Burkholderia cepacia) of the same molecule?
**A.** ≤8

**Q.** What does the source list for `COc1cnc2ccc(F)c(CNC3CCC(NCc4cnc5c(n4)NC(=O)CO5)CC3)c2n1.Cl` [Formula (V) HCl salt, 6-((((1R,4R)-4-(((6-fluoro-3-methoxyquinoxalin-5-yl)methyl)amino)cyclohexyl)amino)methyl)-2H-pyrazino[2,3-b][1,4]oxazin-3(4H)-one, Hydrochloride]?
**A.** MIC (Bacteroides caccae): ≤4 µg/mL; MIC (Bacteroides fragilis): ≤0.5 µg/mL; MIC90 (Streptococcus agalactiae): ≤2 µg/mL; MIC90 (Bacillus anthracis; Table 3 column B4 = Bacillus anthracis): ≤0.25 µg/mL; MIC (Bacteroides ovatus): ≤2 µg/mL; MIC90 (Francisella tularensis; Table 3 column C4 = Francisella tularensis): ≤0.5 µg/mL; MIC90 (Serratia marcescens): ≤ 4 µg/mL; MIC90 [2]: ≤4 µg/mL; MIC90 (Burkholderia mallei): ≤4 µg/mL; MIC [3]: ≤1 µg/mL; H37Rv MIC [1]: ≤0.3 µg/mL; MIC90 (Burkholderia cepacia): ≤8; MIC90 (Yersinia pestis; Table 3 column A4 = Yersinia pestis): ≤0.12 µg/mL; MIC90 (citrobacter spp): ≤ 0.25 µg/mL; MIC90 (Providencia rettgeri): ≤ 0.5 µg/mL

**Q.** How did the MIC90 (Streptococcus pneumonia) turn out when `COc1cnc2ccc(F)c(CN[C@@H]3CC[C@@H](NCc4cnc5c(n4)NC(=O)CO5)C[C@@H]3O)c2n1.Cl` [Formula (VI) HCl salt, 6-((((1R,3S,4R)-4-(((6-fluoro-3-methoxyquinoxalin-5-yl)methyl)amino)-3-hydroxycyclohexyl)amino)methyl)-2H-pyrazino[2,3-b][1,4]oxazin-3(4H)-one Hydrochloride] was run?
**A.** ≤ 0.25 µg/mL

**Q.** And the MIC90 (Bacillus anthracis; Bacillus anthracis)?
**A.** ≤ 0.25 µg/mL

**Q.** What about the MIC90 (Francisella tularensis; Francisella tularensis) of the same molecule?
**A.** ≤ 0.063 µg/mL

**Q.** And the MIC90 (Staphylococcus aureus)?
**A.** ≤ 0.125 µg/mL

**Q.** What about the MIC [1] of the same molecule?
**A.** ≤ 0.02 µg/mL

**Q.** And the MIC90 (Streptococcus pyogenes)?
**A.** ≤ 0.063 µg/mL

**Q.** And the MIC90 (Burkholderia cepacia)?
**A.** ≤8

**Q.** And the MIC90 (Yersinia pestis; Yersinia pestis)?
**A.** ≤ 0.125 µg/mL

**Q.** Which MIC [1] does the source give for `COc1cnc2ccc(F)c(CN[C@H]3CC[C@H](NCc4cnc5c(n4)NC(=O)CO5)C[C@H]3O)c2n1.Cl` [Compound W, HCl salt, 6-(((1S,3R,4S)-4-((7-Fluoro-2-methoxyquinoxalin-8-yl)methylamino)-3-hydroxycyclohexylamino)methyl)-2H-pyrazino[2,3-b][1,4]oxazin-3(4H)-one Hydrochloride] here?
**A.** ≤ 0.02 µg/mL

**Q.** Which MIC90 (Streptococcus pneumonia) does the source give for `COc1cnc2ccc(F)c(CN[C@H]3CC[C@H](NCc4cnc5c(n4)NC(=O)CO5)C[C@H]3O)c2n1.Cl` [Compound W, 6-({[(1S,3R,4S)-4-{[(6-fluoro-3-methoxyquinoxalin-5-yl)methyl]amino}-3-hydroxycyclohexyl]amino}methyl)-2H,3H,4H-pyrazino[2,3-b][1,4]oxazin-3-one] here?
**A.** ≤ 0.5 µg/mL

**Q.** What about the MIC90 (Bacillus anthracis; Bacillus anthracis) of the same molecule?
**A.** ≤ 0.5 µg/mL

**Q.** What about the MIC90 (Francisella tularensis; Francisella tularensis) of the same molecule?
**A.** ≤ 0.125 µg/mL

**Q.** And the MIC90 (Staphylococcus aureus)?
**A.** ≤ 0.125 µg/mL

**Q.** What about the MIC90 (Streptococcus pyogenes) of the same molecule?
**A.** ≤ 0.125 µg/mL

**Q.** What about the MIC90 (Burkholderia cepacia) of the same molecule?
**A.** ≤16

**Q.** What about the MIC90 (Yersinia pestis; Yersinia pestis) of the same molecule?
**A.** ≤ 0.125 µg/mL

**Q.** For `COc1ccc2ncc(=O)n(CCN3CC[C@@H](CNCc4ncc5c(n4)NC(=O)CO5)C3)c2n1` [Formula (VII) HCl salt, 2-({[((3S)-1-{2-[6-(methyloxy)-3-oxopyrido[2,3-b]pyrazin-4(3H)-yl]ethyl}-3-pyrrolidinyl)methyl]amino}methyl)-1H-pyrimido[5,4-b][1,4]oxazin-7(6H)-one], which MIC90 (Bacillus anthracis; Bacillus anthracis) is on record?
**A.** ≤ 0.12 µg/mL

**Q.** And the MIC90 (Legionella pneumophila)?
**A.** ≤ 0.06 µg/mL

**Q.** What about the MIC90 (Enterococcus faecalis; read-out: MIC90) of the same molecule?
**A.** ≤ 0.5 µg/mL

**Q.** What about the MIC90 (Moraxella catarrhalis) of the same molecule?
**A.** < 0.016 µg/mL

**Q.** What about the MIC90 (Francisella tularensis; Francisella tularensis) of the same molecule?
**A.** ≤ 0.03 µg/mL

**Q.** What about the MIC90 (Serratia marcescens) of the same molecule?
**A.** ≤ 2 µg/mL

**Q.** And the MIC90 (E. faecium)?
**A.** ≤0.5 µg/mL

**Q.** And the MIC [1]?
**A.** ≤ 0.3 µg/mL

**Q.** And the MIC90 (Burkholderia cepacia)?
**A.** ≤16

**Q.** And the MIC90 (Yersinia pestis; Yersinia pestis)?
**A.** ≤ 0.12 µg/mL

**Q.** What about the MIC90 (citrobacter spp) of the same molecule?
**A.** ≤ 0.5 µg/mL

**Q.** And the MIC90 (Providencia rettgeri)?
**A.** ≤ 1 µg/mL
